Structures are written as SMILES.

In this assay the target is T1, His-hMAGL (recombinant polyhistidine tagged human MAGL protein) (Homo sapiens, UniProt Q99685).
T1 construct: made in house; host or cells: E. coli BL21(DE3)
T1 sequence (Q99685 1-303): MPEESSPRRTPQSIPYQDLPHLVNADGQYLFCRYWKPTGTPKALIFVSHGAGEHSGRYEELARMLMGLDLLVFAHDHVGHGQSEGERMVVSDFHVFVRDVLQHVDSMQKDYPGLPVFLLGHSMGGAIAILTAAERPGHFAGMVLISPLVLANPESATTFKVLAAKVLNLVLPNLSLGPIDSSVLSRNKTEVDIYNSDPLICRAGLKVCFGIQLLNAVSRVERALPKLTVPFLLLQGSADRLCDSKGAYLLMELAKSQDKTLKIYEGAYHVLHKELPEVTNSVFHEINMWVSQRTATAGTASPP
Briefly: Measurement of MAGL inhibitory activity (arachidonic acid production from 2-arachidonylglycerol, RapidFire-mass spectrometry). The format is biochemical. As to conditions: test compound 10 μM; MAGL inhibitory rate. The method, then:
The His-hMAGL obtained above was diluted with enzyme reaction buffer (10 mM Tris-HCl, pH 7.5, 1 mM EDTA, 0.025 (w/v) % Triton X-100, 0.01% Bovine serum albumin) to a concentration of 7.5 ng/mL. To each well of a 384 well assay plate (Greiner 781280) was added a solution (5 μL) of a test compound dissolved in dimethyl sulfoxide (DMSO), which was diluted with the above-mentioned enzyme reaction buffer, then His-hMAGL solution (5 μL) diluted to a concentration of 7.5 ng/mL was added, and the mixture was incubated at room temperature for 60 min. Thereafter, to each well was added 5 μL of 150 μM 2-arachidonylglycerol (Tocris Bioscience), and the mixture was incubated at room temperature for 10 min. Then, 10 μL of 2% formic acid (Wako Pure Chemical Industries, Ltd.) was added to stop the reaction. Furthermore, acetonitrile (50 μL) containing 3 μM arachidonic acid-d8 (Cayman Chemical Company) was added and the mixture was stirred.
The amount of arachidonic acid in the obtained enzyme reaction mixture was calculated by measuring by RapidFire-mass spectrometry and correcting by the amount of arachidonic acid-d8. High Throughput online solid phase extraction was performed using RapidFire 300™ system (Agilent Technologies, Inc.). Samples were loaded on SPE C4 cartridge (Agilent Technologies, Inc.) and desalted with 0.2 (v/v) % acetic acid (Wako Pure Chemical Industries, Ltd.) in ultrapure water/acetonitrile (70/30, v/v) at a flow rate of 1.5 mL/min, eluted at a flow rate of 0.5 mL/min with 0.2 (v/v) % acetic acid dissolved in acetonitrile/ultrapure water (90/10, v/v), and injected into the mass spectrometry part. The injection needle was washed with ultrapure water (500 millisecond) and acetonitrile (500 millisecond) to minimize carry-over. The suction time (injection loop 5 μL), load/cleansing time, elution time and re-equilibration time were adjusted to 300, 3000, 4250 and 1000 milliseconds, respectively, and the total cycle time was adjusted to about 10.0 seconds. The RapidFire300 system was controlled by RapidFire UI software version 3.6 (Agilent Technologies, Inc.).
The mass spectrometry of the resultant product was performed using API4000™ triple quadrupole mass spectrometer (AB SCIEX) equipped with an electrospray ion sauce (TurboIon Spray™) in a negative selected reaction monitoring (SRM) mode. The conditions of SRM are shown below. The parameters of the instrument were optimized as follows: capillary temperature 600° C., ion spray voltage −4.5 kV, collision gas 8, curtain gas 15 psi, ion source gas 1 60 psi, ion source gas 2 60 psi. The mass spectrometer was controlled by Analyst™ software version 1.5.1 (AB SCIEX). The peak area integration was analyzed using RapidFire integrator software version 3.6 (Agilent Technologies, Inc.).
MAGL inhibitory rate (%) was calculated according to the following calculation formula. (1-(arachidonic acid production amount of test compound addition group−arachidonic acid production amount of enzyme-free group)+(arachidonic acid production amount of test compound-free group−arachidonic acid production amount of enzyme-free group))×100

Take `O=C1NC2(CO1)CN(C(=O)O[C@H]1C[C@@H](OCc3ccc(F)c(F)c3)C1)C2` [Example 41, cis-3-((3,4-difluorobenzyl)oxy)cyclobutyl 6-oxo-7-oxa-2,5-diazaspiro[3.4]octane-2-carboxylate]: the inhibition at 10 µM was 99%. For `O=C1NC2(CO1)CN(C(=O)O[C@H]1C[C@H](OCc3ccccc3)C1)C2` [Example 42, trans-3-(benzyloxy)cyclobutyl 6-oxo-7-oxa-2,5-diazaspiro[3.4]octane-2-carboxylate], the inhibition at 10 µM turned out to be 99%. Next, `O=C1NC2(CO1)CN(C(=O)O[C@H]1C[C@H](Oc3c(F)cc(F)cc3F)C1)C2` [Example 43, trans-3-(2,4,6-fluorophenoxy)cyclobutyl 6-oxo-7-oxa-2,5-diazaspiro[3.4]octane-2-carboxylate]: 102%; `O=C1NC2(CO1)CN(C(=O)O[C@H]1C[C@@H](Oc3ccc(F)cc3Cl)C1)C2` [Example 44, cis-3-(2-chloro-4-fluorophenoxy)cyclobutyl 6-oxo-7-oxa-2,5-diazaspiro[3.4]octane-2-carboxylate]: 103%. Turning to `Cc1ccc(O[C@H]2C[C@@H](OC(=O)N3CC4(COC(=O)N4)C3)C2)cc1F` [Example 45, cis-3-(3-fluoro-4-methylphenoxy)cyclobutyl 6-oxo-7-oxa-2,5-diazaspiro[3.4]octane-2-carboxylate], the inhibition at 10 µM stood at 98%. For `O=C1NC2(CO1)CN(C(=O)O[C@H]1C[C@@H](Oc3ccc(Cl)cc3)C1)C2` [Example 47, cis-3-(4-chlorophenoxy)cyclobutyl 6-oxo-7-oxa-2,5-diazaspiro[3.4]octane-2-carboxylate], the inhibition at 10 µM was 100%. Next, `O=C1NC2(CO1)CN(C(=O)O[C@H]1C[C@@H](Oc3ccc(C(F)(F)F)cc3)C1)C2` [Example 48, cis-3-(4-(trifluoromethyl)phenoxy)cyclobutyl 6-oxo-7-oxa-2,5-diazaspiro[3.4]octane-2-carboxylate]: 100%. Take `O=C1NC2(CO1)CN(C(=O)O[C@H]1C[C@@H](Oc3cccc(Cl)c3)C1)C2` [Example 49, cis-3-(3-chlorophenoxy)cyclobutyl 6-oxo-7-oxa-2,5-diazaspiro[3.4]octane-2-carboxylate]: the inhibition at 10 µM amounted to 100%. On to `Cc1cc(O[C@H]2C[C@@H](OC(=O)N3CC4(COC(=O)N4)C3)C2)ccc1F` [Example 50, cis-3-(4-fluoro-3-methylphenoxy)cyclobutyl 6-oxo-7-oxa-2,5-diazaspiro[3.4]octane-2-carboxylate], for which the inhibition at 10 µM came to 99%. As for `O=C1NC2(CO1)CN(C(=O)O[C@H]1C[C@@H](Oc3ccc(F)c(F)c3F)C1)C2` [Example 51, cis-3-(2,3,4-trifluorophenoxy)cyclobutyl 6-oxo-7-oxa-2,5-diazaspiro[3.4]octane-2-carboxylate], the inhibition at 10 µM is 99%. `O=C1NC2(CO1)CN(C(=O)O[C@H]1C[C@@H](Oc3ccccc3Cl)C1)C2` [Example 52, cis-3-(2-chlorophenoxy)cyclobutyl 6-oxo-7-oxa-2,5-diazaspiro[3.4]octane-2-carboxylate]: the inhibition at 10 µM turned out to be 100%. With `Cc1ccc(O[C@H]2C[C@@H](OC(=O)N3CC4(COC(=O)N4)C3)C2)cc1` [Example 53, cis-3-(4-methylphenoxy)cyclobutyl 6-oxo-7-oxa-2,5-diazaspiro[3.4]octane-2-carboxylate], the inhibition at 10 µM stood at 101%. On to `O=C1NC2(CO1)CN(C(=O)O[C@H]1C[C@@H](Oc3ccc(Cl)cc3F)C1)C2` [Example 54, cis-3-(4-chloro-2-fluorophenoxy)cyclobutyl 6-oxo-7-oxa-2,5-diazaspiro[3.4]octane-2-carboxylate], for which the inhibition at 10 µM turned out to be 100%. For the molecule `Cc1cc(F)ccc1O[C@H]1C[C@@H](OC(=O)N2CC3(COC(=O)N3)C2)C1` [Example 55, cis-3-(4-fluoro-2-methylphenoxy)cyclobutyl 6-oxo-7-oxa-2,5-diazaspiro[3.4]octane-2-carboxylate], the inhibition at 10 µM worked out at 100%.

On to `Cc1ccc(O[C@H]2C[C@@H](OC(=O)N3CC4(COC(=O)N4)C3)C2)c(F)c1` [Example 56, cis-3-(2-fluoro-4-methylphenoxy)cyclobutyl 6-oxo-7-oxa-2,5-diazaspiro[3.4]octane-2-carboxylate], for which the inhibition at 10 µM is 101%.

Take `O=C1NC2(CO1)CN(C(=O)O[C@H]1C[C@@H](Oc3cc(F)c(F)cc3F)C1)C2` [Example 57, cis-3-(2,4,5-trifluorophenoxy)cyclobutyl 6-oxo-7-oxa-2,5-diazaspiro[3.4]octane-2-carboxylate]: the inhibition at 10 µM was found to be 100%. For the molecule `C[C@]1(OC(=O)N2CC3(COC(=O)N3)C2)C[C@@H](OCc2ccccc2)C1` [Example 58, cis-3-(benzyloxy)-1-methylcyclobutyl 6-oxo-7-oxa-2,5-diazaspiro[3.4]octane-2-carboxylate], the inhibition at 10 µM worked out at 93%. Regarding `C[C@]1(OC(=O)N2CC3(COC(=O)N3)C2)C[C@H](OCc2ccccc2)C1` [Example 59, trans-3-(benzyloxy)-1-methylcyclobutyl 6-oxo-7-oxa-2,5-diazaspiro[3.4]octane-2-carboxylate], the inhibition at 10 µM worked out at 99%. With `C[C@]1(OC(=O)N2CC3(COC(=O)N3)C2)C[C@@H](Oc2c(F)cc(F)cc2F)C1` [Example 60, cis-1-methyl-3-(2,4,6-trifluorophenoxy)cyclobutyl 6-oxo-7-oxa-2,5-diazaspiro[3.4]octane-2-carboxylate], the inhibition at 10 µM is 98%. Regarding `C[C@]1(OC(=O)N2CC3(COC(=O)N3)C2)C[C@H](Oc2c(F)cc(F)cc2F)C1` [Example 61, trans-1-methyl-3-(2,4,6-trifluorophenoxy)cyclobutyl 6-oxo-7-oxa-2,5-diazaspiro[3.4]octane-2-carboxylate], the inhibition at 10 µM is 100%. `O=C1NC2(CO1)CN(C(=O)O[C@H]1C[C@H](OCc3ccc(C(F)(F)F)cc3F)C1)C2` [Example 62, trans-3-((2-fluoro-4-(trifluoromethyl)benzyl)oxy)cyclobutyl 6-oxo-7-oxa-2,5-diazaspiro[3.4]octane-2-carboxylate]: the inhibition at 10 µM worked out at 99%. Regarding `C[C@]1(Oc2ccc(F)cc2Cl)C[C@@H](OC(=O)N2CC3(COC(=O)N3)C2)C1` [Example 63, cis-3-(2-chloro-4-fluorophenoxy)-3-methylcyclobutyl 6-oxo-7-oxa-2,5-diazaspiro[3.4]octane-2-carboxylate], the inhibition at 10 µM came out at 100%.

As usually defined, the inhibition is the change of the read-out against control, counted positive when it falls.

The record behind these values is patent publication US11274101B2, “Heterocyclic compound” (Takeda Pharmaceutical Company Limited, priority 2017, dated 2022).
